Values quoted from earlier work, collected in patent US20070269386A1, “New product and use and manufacture thereof” (priority 2006, published 2007).

System: adult

Compound: CN1CCCC1c1cccnc1 (stereo not shown) [nicotine, 3-(1-methyl-2-pyrrolidinyl)-pyridine]
- single dose that may kill an adult: Approximately 40 milligrams
